This passage reports IC50 results from patent US8658661B2, “Oxadiazole inhibitors of leukotriene production” (Boehringer Ingelheim International GmbH, priority 2010, dated 2014).

The structures appear in SMILES notation. pIC50: −log10 of the molar value.

Experiment [1] deals with synthesis of LTB4 in human whole blood. Put plainly: Human whole blood assay (inhibition of LTB4 synthesis, calcimycin stimulated). Type of experiment: cell-based. The following applies: heparinized human whole blood, calcimycin 20 μM, plasma LTB4. The method, then: Compounds are additionally tested in a human whole blood assay to determine their ability to inhibit the synthesis of LTB4 in a cellular system. Compounds are combined with heparinized human whole blood and incubated for 15 minutes at 37° C. Calcimycin (20 μM final, prepared in phosphate-buffered saline, pH 7.4) is then added and the mixture is incubated for another 30 minutes at 37° C. The samples are centrifuged for 5 min at low speed (1500×g) and the plasma layer is removed. Plasma LTB4 concentrations are then measured using an antibody-based homogenous time-resolved fluorescence method (CisBio, Bedford, Mass.).

Experiment [2] deals with T1, recombinant human FLAP protein (Homo sapiens, UniProt P20292).
T1 construct: made in house; host or cells: Sf9 insect cells (100,000×g membrane pellet used)
T1 sequence (P20292 1-161): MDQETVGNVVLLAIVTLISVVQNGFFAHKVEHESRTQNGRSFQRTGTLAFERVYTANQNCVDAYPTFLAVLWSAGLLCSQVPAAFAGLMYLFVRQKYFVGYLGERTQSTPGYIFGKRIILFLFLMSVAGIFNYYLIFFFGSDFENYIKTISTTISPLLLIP
Put plainly: FLAP binding assay (SPA, displacement of [125I]L-691,831). The following applies: membranes of sf9 cells expressing recombinant human FLAP; [125I]L-691,831 probe; read-out: FLAP binding IC50. The protocol:
Assessment of Biological Properties 1. Binding Assay
Compounds are assessed for the ability to bind to FLAP in a binding assay that measures compound-specific displacement of an iodinated (^125I) FLAP inhibitor via a Scintillation Proximity Assay format (adapted from S. Charleson et al., Mol. Pharmacol., 1992, 41, 873-879).
Cell pellets produced from sf9 insect cells expressing recombinant human FLAP protein are resuspended in buffer A [15 mM Tris-HCl (pH 7.5), 2 mM MgCl2, 0.3 mM EDTA, 1 mM PMSF]. The cells are lysed with a Dounce homogenizer and the material is centrifuged at 10,000×g for 10 minutes. The supernatant is then collected and centrifuged at 100,000×g for 60 minutes. To prepare membrane protein for an assay, an aliquot of the 100,000×g pellet is resuspended in 1 ml of buffer A, Dounce homogenized, and finally subjected to polytron mixing (30 seconds). Membrane protein (25 μl, 5 μg) is mixed with WGA SPA beads (Amersham) and stirred for 1 h. […] (final concentrations: beads, 200 μg/well; protein, 5 μg/well; [^125I] probe, 0 08 nM/well (17 nCi/well). The plates are shaken for 2 h before reading on a Microbeta plate reader. Non-specific binding is determined by the addition of 10 μM cold L-691,831 compound.
For orientation: Displacement assays read how much labelled ligand stays bound in the presence of the test substance.

What is called pIC50 is the IC50 on a negative log10 scale, so that one unit is a factor of ten. As to `COc1cncc(-c2nc(C(C)(c3ccc(-c4cnc(N)nc4)cc3)C(C)C)no2)c1` (centres unmarked) [Example 13, 5-(4-{2-[5-(5-methoxypyridin-3-yl)-1,2,4-oxadiazol-3-yl]-3-methylbutan-2-yl}phenyl)pyrimidin-2-amine], the pIC50 in experiment [1] is 6.34; in experiment [2] it was 8.44.

As to `CC(C)C(C)(c1ccc(-c2cnc(N)nc2)cc1)c1noc(-c2ccn(C)n2)n1` (centres unmarked) [Example 14, 5-(4-{3-methyl-2-[5-(1-methyl-1H-pyrazol-3-yl)-1,2,4-oxadiazol-3-yl]butan-2-yl}phenyl)pyrimidin-2-amine], the pIC50 in experiment [1] was 6.85; in experiment [2], 8.34.

For the molecule `CC(C)C(C)(c1ccc(-c2cnc(N)nc2)cc1)c1noc(-c2cnn(C)c2)n1` (centres unmarked) [Example 15, 5-(4-{3-methyl-2-[5-(1-methyl-1H-pyrazol-4-yl)-1,2,4-oxadiazol-3-yl]butan-2-yl}1phenyl)pyrimidin-2-amine], the values for the pIC50 in experiment [1] and in experiment [2] were 7.34 and 8.70, respectively.

Take `CC(C)[C@](C)(c1ccc(-c2cnc(N)nc2)cc1)c1noc(-c2ccn(C)n2)n1` [Example 16, 5-(4-{(2R)-3-methyl-2-[5-(1-methyl-1H-pyrazol-3-yl)-1,2,4-oxadiazol-3-yl]butan-2-yl}phenyl)pyrimidin-2-amine]: the results for the pIC50 in experiment [1] and in experiment [2] were 6.96 and 8.60, respectively.

Take `CC(C)[C@@](C)(c1ccc(-c2cnc(N)nc2)cc1)c1noc(-c2ccn(C)n2)n1` [Example 17, 5-(4-{(2S)-3-methyl-2-[5-(1-methyl-1H-pyrazol-3-yl)-1,2,4-oxadiazol-3-yl]butan-2-yl}phenyl)pyrimidin-2-amine]: the pIC50 in experiment [1] was 6.29; in experiment [2], 7.62.

Consider `CC(C)C(C)(c1ccc(-c2cnc(N)nc2)cc1)c1noc(-c2ccnn2C)n1` (centres unmarked) [Example 18, 5-(4-{3-methyl-2-[5-(1-methyl-1H-pyrazol-5-yl)-1,2,4-oxadiazol-3-yl]butan-2-yl}phenyl)pyrimidin-2-amine], for which the pIC50 in experiment [1] is 6.49; in experiment [2], 8.48.

`CC(C)C(C)(c1ccc(-c2cnc(N)nc2)cc1)c1noc(-c2ccn[nH]2)n1` (centres unmarked) [Example 19, 5-(4-{3-methyl-2-[5-(1H-pyrazol-5-yl)-1,2,4-oxadiazol-3-yl]butan-2-yl}phenyl)pyrimidin-2-amine]: the pIC50 in experiment [1] was 6.59; in experiment [2], 8.24.

Regarding `CC(C)C(C)(c1ccc(-c2cnc(N)nc2)cc1)c1noc(-c2ncc[nH]2)n1` (centres unmarked) [Example 20, 5-(4-{2-[5-(1H-imidazol-2-yl)-1,2,4-oxadiazol-3-yl]-3-methylbutan-2-yl}phenyl)pyrimidin-2-amine], the values for the pIC50 in experiment [1] and in experiment [2] were 5.49 and 8.00, respectively.

As to `CC(c1ccc(-c2cnc(N)nc2)cc1)(c1noc(-c2cn[nH]c2)n1)C1CC1` (centres unmarked) [Example 21, 5-(4-{1-cyclopropyl-1-[5-(1H-pyrazol-4-yl)-1,2,4-oxadiazol-3-yl]ethyl}phenyl)pyrimidin-2-amine], the pIC50 in experiment [1] was 7.06; in experiment [2] it was 8.26.

As for `Cn1cc(-c2nc(C(C)(c3ccc(-c4cnc(N)nc4)cc3)C3CC3)no2)cn1` (centres unmarked) [Example 22, 5-(4-{1-cyclopropyl-1-[5-(1-methyl-1H-pyrazol-4-yl)-1,2,4-oxadiazol-3-yl]ethyl}phenyl)pyrimidin-2-amine], the pIC50 was 7.34 in experiment [1] and 8.38 in experiment [2].

On to `CC(C)[C@](C)(c1ccc(-c2cnc(N)nc2)cc1)c1noc(-c2ccn[nH]2)n1` [Example 23, 5-(4-{(2R)-3-methyl-2-[5-(1H-pyrazol-5-yl)-1,2,4-oxadiazol-3-yl]butan-2-yl}phenyl)pyrimidin-2-amine], for which the values for the pIC50 in experiment [1] and in experiment [2] were 6.77 and 8.16, respectively.

In the case of `CC(C)[C@@](C)(c1ccc(-c2cnc(N)nc2)cc1)c1noc(-c2ccn[nH]2)n1` [Example 24, 5-(4-{(2S)-3-methyl-2-[5-(1H-pyrazol-5-yl)-1,2,4-oxadiazol-3-yl]butan-2-yl}phenyl)pyrimidin-2-amine], the pIC50 in experiment [1] is 6.39; in experiment [2] it was 7.72.

With `CC(c1ccc(-c2cnc(N)nc2)cc1)(c1noc(-c2cc[nH]n2)n1)C1CC1` (centres unmarked) [Example 25, 5-(4-{1-cyclopropyl-1-[5-(1H-pyrazol-3-yl)-1,2,4-oxadiazol-3-yl]ethyl}phenyl)pyrimidin-2-amine], the pIC50 in experiment [1] is 6.77; in experiment [2], 8.22.

On to `Cn1ccc(-c2nc(C(C)(c3ccc(-c4cnc(N)nc4)cc3)C3CC3)no2)n1` (centres unmarked) [Example 26, 5-(4-{1-cyclopropyl-1-[5-(1-methyl-1H-pyrazol-3-yl)-1,2,4-oxadiazol-3-yl]ethyl}phenyl)pyrimidin-2-amine], for which the pIC50 was 6.80 in experiment [1] and 8.04 in experiment [2].

Take `Cn1nccc1-c1nc(C(C)(c2ccc(-c3cnc(N)nc3)cc2)C2CC2)no1` (centres unmarked) [Example 27, 5-(4-{1-cyclopropyl-1-[5-(1-methyl-1H-pyrazol-5-yl)-1,2,4-oxadiazol-3-yl]ethyl}phenyl)pyrimidin-2-amine]: the pIC50 in experiment [1] is 6.48; in experiment [2] it was 7.92.

With `Cn1cnc(-c2nc(C(C)(c3ccc(-c4cnc(N)nc4)cc3)C3CC3)no2)c1` (centres unmarked) [Example 28, 5-(4-{1-cyclopropyl-1-[5-(1-methyl-1H-imidazol-4-yl)-1,2,4-oxadiazol-3-yl]ethyl}phenyl)pyrimidin-2-amine], the pIC50 in experiment [1] was 6.49; in experiment [2], 7.59.

On to `Cc1ccc(-c2nc(C(C)(c3ccc(-c4cnc(N)nc4)cc3)C3CC3)no2)cn1` (centres unmarked) [Example 29, 5-(4-{1-cyclopropyl-1-[5-(6-methylpyridin-3-yl)-1,2,4-oxadiazol-3-yl]ethyl}phenyl)pyrimidin-2-amine], for which the pIC50 in experiment [1] was 6.72; in experiment [2], 8.28.

`COCCn1cc(-c2nc(C(C)(c3ccc(-c4cnc(N)nc4)cc3)C3CC3)no2)cn1` (centres unmarked) [Example 30, 5-[4-(1-cyclopropyl-1-{5-[1-(2-methoxyethyl)-1H-pyrazol-4-yl]-1,2,4-oxadiazol-3-yl}ethyl)phenyl]pyrimidin-2-amine]: the pIC50 was 7.22 in experiment [1] and 8.30 in experiment [2].

Regarding `CC(C)[C@](C)(c1ccc(-c2cnc(N)nc2)cc1)c1noc(-c2ccnn2C)n1` [Example 31, 5-(4-{(2R)-3-methyl-2-[5-(1-methyl-1H-pyrazol-5-yl)-1,2,4-oxadiazol-3-yl]butan-2-yl}phenyl)pyrimidin-2-amine], the pIC50 in experiment [1] was 6.70; in experiment [2] it was 8.80.

`CC(C)[C@@](C)(c1ccc(-c2cnc(N)nc2)cc1)c1noc(-c2ccnn2C)n1` [Example 32, 5-(4-{(2S)-3-methyl-2-[5-(1-methyl-1H-pyrazol-5-yl)-1,2,4-oxadiazol-3-yl]butan-2-yl}phenyl)pyrimidin-2-amine]: the pIC50 in experiment [1] is 5.60; in experiment [2], 7.74.

As for `Cn1cc(-c2nc(C(C)(c3ccc(-c4cnc(N)nc4)cc3)C3CCC3)no2)cn1` (centres unmarked) [Example 33, 5-(4-{1-cyclobutyl-1-[5-(1-methyl-1H-pyrazol-4-yl)-1,2,4-oxadiazol-3-yl]ethyl}phenyl)pyrimidin-2-amine], the pIC50 in experiment [1] was 6.68; in experiment [2], 8.18.

As to `CC(c1ccc(-c2cnc(N)nc2)cc1)(c1noc(-c2cn[nH]c2)n1)C1CCC1` (centres unmarked) [Example 34, 5-(4-{1-cyclobutyl-1-[5-(1H-pyrazol-4-yl)-1,2,4-oxadiazol-3-yl]ethyl}phenyl)pyrimidin-2-amine], the pIC50 in experiment [1] is 6.80; in experiment [2], 8.43.
